For test [1], the system named is U-937. Nature of the test: Anticancer activity against human U-937 cells assessed as cell growth inhibition. The format is functional, cell-based.
Test [2] relates to B16. Nature of the test: Anticancer activity against mouse B16 cells assessed as cell growth inhibition. The format is functional, cell-based.
The subject of test [3] is B16. Nature of the test: Antitumor activity against mouse B16 cells implanted in mouse assessed as inhibition of lung tumor formation at 5 mg/kg, po measured after 10 days relative to control. More on the design: scale not given: the % may be the effect or the level left. The format is functional. The conditions noted are these: time 10 day.
Test [4] concerns Enterococcus. Nature of the test: Antibacterial activity against vancomycin resistant Enterococcus incubated for 24 hrs by broth microdilution method. The format is functional. A general note: Broth dilution looks for growth in wells or tubes with falling amounts of substance.
Test [5] has as its system Staphylococcus aureus. Nature of the test: Antibacterial activity against methicillin resistant Staphylococcus aureus incubated for 24 hrs by broth microdilution method. Format: functional.
Test [6] has as its system Histoplasma capsulatum. In words: Antifungal activity against Histoplasma capsulatum. Format: functional.
Test [7] deals with Blastomyces dermatitidis. In words: Antifungal activity against Blastomyces dermatitidis. Format: functional.
Test [8] has as its target Prostaglandin G/H synthase 1 (Homo sapiens, UniProt P23219). Nature of the test: Inhibition of COX-1 (unknown origin) using arachidonic acid as substrate assessed as PGH2 level preincubated for 5 mins followed by substrate addition and measured after 1 min by UHPLC-MS/MS analysis.
Test [9] can be described thus: Inhibition of Saccharomyces alpha-glucosidase using p-nitrophenyl-alpha-D-glucopyranoside as substrate assessed as substrate hydrolysis incubated for 15 mins by spectrophotometer analysis. On the set-up: species or system Saccharomyces sp.
The test system of test [10] is Jurkat. Nature of the test: Anticancer activity against human Jurkat T cells assessed as cell growth inhibition. Format: functional, cell-based.
Test [11] concerns HT-29. In words: Anticancer activity against human HT-29 cells assessed as cell growth inhibition. Format: functional, cell-based.

Values after ≈ are worked out from the molar mass of the structure shown.

Here are results for 46 compounds from ChEMBL document CHEMBL5149998, “Synthetic access to thiolane-based therapeutics and biological activity studies” (Eur J Med Chem, 2021).

Prostaglandin G/H synthase 1, sequence (P23219 whole entry): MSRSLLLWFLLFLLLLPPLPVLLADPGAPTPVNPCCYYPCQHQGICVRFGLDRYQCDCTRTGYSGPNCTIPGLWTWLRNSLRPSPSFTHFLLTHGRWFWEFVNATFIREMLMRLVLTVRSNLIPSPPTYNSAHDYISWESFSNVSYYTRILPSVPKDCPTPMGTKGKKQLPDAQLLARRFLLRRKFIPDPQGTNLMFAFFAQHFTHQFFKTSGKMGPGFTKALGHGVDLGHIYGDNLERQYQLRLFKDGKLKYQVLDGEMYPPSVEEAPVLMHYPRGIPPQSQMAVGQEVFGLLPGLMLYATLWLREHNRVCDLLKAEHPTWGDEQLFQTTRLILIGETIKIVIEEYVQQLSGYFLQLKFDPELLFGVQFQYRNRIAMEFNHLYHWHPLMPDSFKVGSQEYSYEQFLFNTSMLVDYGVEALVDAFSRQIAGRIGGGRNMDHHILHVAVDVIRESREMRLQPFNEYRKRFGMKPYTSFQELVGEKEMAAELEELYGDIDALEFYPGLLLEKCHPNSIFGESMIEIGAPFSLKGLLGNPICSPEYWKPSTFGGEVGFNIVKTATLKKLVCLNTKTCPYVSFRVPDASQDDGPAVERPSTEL

With `C[C@@H]1CC[C@@H](c2ccoc2)N2C[C@@]3(CC[C@@H]12)CS[C@@]1(CC[C@H]2[C@H](C)CC[C@@H](c4ccoc4)N2[C@@H]1O)C3`, the IC50 (usually the concentration needed to halve the response being measured) in [1] came out at 5 µM; in test [2], 0.029 µM. For the same compound, in test [3], the Activity was over 90%.
As for `C[C@@H]1CC[C@@H](c2ccoc2)N2[C@H]1CC[C@@]1(CS[C@@]3(CC[C@H]4[C@H](C)CC[C@@H](c5ccoc5)N4[C@@H]3O)C1)[C@H]2O`, the MIC (in general, the smallest concentration in the dilution series that meets the test's criterion for growth inhibition) in test [4] came to 2 µg/mL (≈ 3.8 µM); in test [5], 1 µg/mL (≈ 1.9 µM). The Activity in test [6] and in [7] was 100 µg/mL in each case. For the same compound, the IC50 in test [1] was 5 µM; in test [2] it was 0.087 µM.
For `C[C@@H]1CC[C@@H](c2ccoc2)N2[C@H]1CC[C@@]1(CS[C@]3(CC[C@H]4[C@H](C)CC[C@@H](c5ccoc5)N4[C@@H]3O)C1)[C@H]2O`, the IC50 in [1] worked out at 2.5 µM.
Take `C[C@H]1CC[C@H](c2ccccc2)N2[C@@H]1CC[C@](C)(Sc1ccccc1)[C@@H]2O`: in [1], the IC50 was determined as 5 µM.
`C/C=C/[S+]([O-])SC1SC(O)C(C)C1C` (centres undefined): the IC50 in test [8] worked out at 0.052 µM; in test [9], 0.71 µM.
Consider `C[C@H]1CC[C@H](c2ccoc2)N2[C@@H]1CC[C@]1(CS[C@]3(CC[C@@H]4[C@@H](C)CC[C@H](c5ccoc5)N4[C@H]3O)C1)[C@@H]2O`, for which, in test [1], the IC50 turned out to be 5 µM.
For `C[C@@H]1CC[C@@H](c2ccoc2)N2[C@H]1CC[C@]1(CS[C@@]3(CC[C@H]4[C@H](C)CC[C@@H](c5ccoc5)N4[C@@H]3O)C1)[C@H]2O`, the IC50 in test [1] is 2.5 µM.
In the case of `CC1CCC(c2ccoc2)N2C1CCC1(CSC3(CCC4C(C)CCC(c5ccoc5)N4C3O)C1)C2O` (centres undefined), the values for the EC50 in test [10] and in [11] were 0.263 µM and 0.547 µM, respectively.
Turning to `C[C@H]1CC[C@H](c2ccccc2)N2[C@@H]1CC[C@@](C)(Sc1ccccc1)[C@@H]2O`, the IC50 in test [1] is 2.5 µM.
`C[C@H]1CC[C@H](c2ccoc2)N2[C@@H]1CC[C@]1(CS[C@@]3(CC[C@@H]4[C@@H](C)CC[C@H](c5ccoc5)N4[C@H]3O)C1)[C@@H]2O`: the IC50 in test [1] stood at 5 µM.
On the same count and under the same terms, next, `CS[C@@]1(C)CC[C@@H]2[C@@H](C)CC[C@H](c3ccc(F)cc3)N2[C@H]1O`: 5 µM.
Regarding `C=CC[C@]1(SC)CC[C@@H]2[C@@H](C)CC[C@H](c3ccc(F)cc3)N2[C@H]1O`, the IC50 in [1] came to 5 µM.
Regarding `C#CC[C@]1(SC)CC[C@@H]2[C@@H](C)CC[C@H](c3ccccc3)N2[C@H]1O`, the IC50 in [1] came out at 2.5 µM.
On to `FC(F)(F)c1ccc(C[N+]2=CC3(CCC2)CSC2(C=[N+](Cc4ccc(C(F)(F)F)cc4)CCC2)C3)cc1` (centres undefined), for which the figures for the EC50 in [10] and in test [11] were 1.8 µM and 2.4 µM, respectively.
Consider `CS[C@]1(C)CC[C@@H]2[C@@H](C)CC[C@H](c3ccccc3)N2[C@H]1O`, for which the IC50 in test [1] came to 0.625 µM.
On the same count and under the same terms, the value for `C[C@H]1CC[C@H](c2ccoc2)N2[C@@H]1CC[C@@]1(CS[C@]3(CC[C@@H]4[C@@H](C)CC[C@H](c5ccoc5)N4[C@H]3O)C1)[C@@H]2O` was 2.5 µM; that for `C[C@@H]1CC[C@@H](c2ccccc2)N2[C@@H](O)[C@@](C)(Sc3ccccc3)CC[C@@H]12` was 2.5 µM.
The same measure, in the same setting: next, `COc1ccc([C@H]2CC[C@H](C)[C@H]3CCC(SC)(SC)[C@H](O)N23)cc1`: 5 µM.
On to `CSC1(SC)CC[C@H]2[C@H](C)CC[C@@H](c3ccccc3)N2[C@@H]1O`, for which the IC50 in [1] was found to be 10 µM.
Take `CS[C@@]1(C)CC[C@@H]2[C@@H](C)CC[C@H](c3ccccc3)N2[C@H]1O`: in [1], the IC50 stood at 5 µM.
As to `CS[C@]1(C)CC[C@@H]2[C@@H](C)CC[C@H](c3ccc(F)cc3)N2[C@H]1O`, the IC50 in [1] came out at 1.25 µM.
Regarding `CSC1(SC)CC[C@@H]2[C@@H](C)CC[C@H](c3ccc(F)cc3)N2[C@H]1O`, the IC50 in [1] came out at 5 µM.
Take `C1=[N+](CCCCc2ccccc2)CCCC12CCC2`: the EC50 – broadly, the midpoint of the concentration-response curve – in test [10] is 9.6 µM; in [11] it was 43 µM.
`C[C@H]1CC[C@H](c2ccoc2)N2C[C@]3(CC[C@H]12)CS[C@]1(CC[C@@H]2[C@@H](C)CC[C@H](c4ccoc4)N2[C@H]1O)C3`: the concentration for half-maximal inhibition (IC50) in test [1] stood at 5 µM.
On to `C1=[N+](CCCCc2ccccc2)CCCC12CCCO2` (centres undefined), for which the values for the EC50 in test [10] and in test [11] were 38 µM and 87 µM, respectively.
For `C1=[N+](Cc2ccccc2)CCCC12CSC1(C=[N+](Cc3ccccc3)CCC1)C2` (centres undefined), the EC50 in test [10] was found to be 1.6 µM; in [11], 2.3 µM.
As to `C#CC[C@@]1(SC)CC[C@@H]2[C@@H](C)CC[C@H](c3ccccc3)N2[C@H]1O`, in test [1], the IC50 amounted to 2.5 µM.
In the case of `COc1ccc([C@H]2CC[C@H](C)[C@H]3CC[C@@](C)(SC)[C@H](O)N23)cc1`, the concentration for half-maximal inhibition (IC50) in [1] stood at 1.25 µM.
Same read-out and setting: next, `COc1ccc([C@H]2CC[C@H](C)[C@H]3CC[C@](C)(SC)[C@H](O)N23)cc1`: 5 µM.
On the same count and under the same terms, the value for `C[C@@H]1CC[C@@H](c2ccoc2)N2[C@H]1CC[C@]1(CS[C@]3(CC[C@H]4[C@H](C)CC[C@@H](c5ccoc5)N4[C@@H]3O)C1)[C@H]2O` was 1.25 µM; that for `CSC1(SC)CC[C@@H]2[C@@H](C)CC[C@H](c3ccccc3)N2[C@H]1O` was 1.25 µM.
As for `C1=[N+](CCCCc2ccccc2)CCCC12CCCS2` (centres undefined), the EC50 in test [10] turned out to be 6.3 µM; in test [11], 12 µM.
As for `C=C1C=[N+](CCCCc2ccccc2)CCC1`, the figures for the EC50 in test [10] and in test [11] were 17 µM and 45 µM, respectively.
Take `C1=[N+](CCCCc2ccccc2)CCCC12CSC1(C=[N+](CCCCc3ccccc3)CCC1)C2` (centres undefined): the EC50 in test [10] was 1.2 µM; in test [11], 2.1 µM.
Take `COc1ccc(C[N+]2=CC3(CCC2)CSC2(C=[N+](Cc4ccc(OC)cc4)CCC2)C3)cc1` (centres undefined): the EC50 in [10] is 1.8 µM; in test [11], 2.8 µM.
As for `C[C@H]1CC[C@H](c2ccoc2)N2[C@@H]1CC[C@@]1(CS[C@@]3(CC[C@@H]4[C@@H](C)CC[C@H](c5ccoc5)N4[C@H]3O)C1)[C@@H]2O`, the IC50 in test [1] stood at 2.5 µM.
`CSC1(SC)CCC2C(C)CCC(c3ccccc3)N2C1O` (racemic): in test [1], the IC50 worked out at 5 µM.
As for `CC1CCC(c2ccccc2)N2C1CCC(C)(Sc1ccccc1)C2O` (racemic), in test [1], the IC50 was 5 µM.
In the case of `C#CCC1(SC)CCC2C(C)CCC(c3ccccc3)N2C1O` (racemic), the IC50 in test [1] was found to be 5 µM.
Regarding `CSC1(C)CCC2C(C)CCC(c3ccccc3)N2C1O` (racemic), the IC50 in test [1] was determined as 3 µM.
As to `C[C@@H]1CC[C@@H](c2ccoc2)N2C[C@@]3(CC[C@@H]12)CS[C@]1(CC[C@H]2[C@H](C)CC[C@@H](c4ccoc4)N2[C@@H]1O)C3` [6-HYDROXYTHIONUPHLUTINE B], the IC50 in test [2] is 0.36 µM.
For the compound `NCC[C@H](O)C(=O)N[C@@H]1C[C@H](N)[C@@H](O[C@H]2O[C@H](CN)CC[C@H]2N)[C@H](O)[C@H]1O[C@H]1O[C@H](CO)[C@@H](O)[C@H](N)[C@H]1O` [ARBEKACIN], in test [5], the lowest concentration to inhibit growth (MIC) was 0.5 µg/mL (≈ 0.905 µM).
`CC(=O)NC[C@H]1CN(c2ccc(N3CCOCC3)c(F)c2)C(=O)O1` [LINEZOLID] had an MIC in test [5] of 1 µg/mL (≈ 2.96 µM).
Turning to `CCn1cc(C(=O)O)c(=O)c2cc(F)c(N3CCNCC3)cc21` [NORFLOXACIN], the MIC came to 4 µg/mL (≈ 12.5 µM) in test [4] and 0.5 µg/mL (≈ 1.57 µM) in test [5].
As to `Cc1onc(-c2ccccc2)c1C(=O)N[C@@H]1C(=O)N2[C@@H]1SC(C)(C)[C@@H]2C(=O)O` [OXACILLIN], 0.06 µg/mL (≈ 0.149 µM) was the least that counted as inhibitory in test [5] (MIC).
`CN[C@H](CC(C)C)C(=O)N[C@H]1C(=O)N[C@@H](CC(N)=O)C(=O)N[C@H]2C(=O)N[C@H]3C(=O)N[C@H](C(=O)N[C@H](C(=O)O)c4cc(O)cc(O)c4-c4cc3ccc4O)[C@H](O)c3ccc(c(Cl)c3)Oc3cc2cc(c3O[C@@H]2O[C@H](CO)[C@@H](O)[C@H](O)[C@H]2O[C@H]2C[C@](C)(N)[C@H](O)[C@H](C)O2)Oc2ccc(cc2Cl)[C@H]1O` [VANCOMYCIN] yielded an MIC in [4] of 0.5 µg/mL (≈ 0.345 µM).
